Measurements as given in US12091399B2, “Phenyltetrazole derivatives as plasma kallikrein inhibitors” (Boehringer Ingelheim International GmbH, priority 2018, dated 2024).

Molecular target: Human PKK (Homo sapiens (Human), UniProt P03952)
Assay: Inhibition of PKK using an endpoint assay (human PKK)
Assay type: biochemical
Settings: 1 h at rt, 0.10 μM H-Pro-Phe-Arg-AMC
Protocol: The ability of compounds of formula (I) to inhibit plasma kallikrein (PKK), Factor XIIa (FXIIa), Factor XIa (FXIa), Factor Xa (FXa), Factor IIa (alpha-thrombin; FIIa), plasmin, trypsin, tissue kallikrein 1 (TK1), Factor Vila (FVIIa), or FVIIa complexed with Tissue Factor, phospholipids and CaCl2) (FVIIa/TF/PL/CaCl2) was determined using the following biochemical assays in assay buffer (100 mM Tris, 150 mM NaCL, adjusted to a pH of 7.8 with HCl, and containing 0.1% (w/v) BSA and 0.05% (v/v) Tween20) in the presence of 1% (v/v) DMSO:
Subsequently, PPACK II (Calbiochem) was added as a stop solution to achieve a final concentration of 1 μM and fluorescence was measured using an Envision Reader (PerkinElmer) with the wavelength excitation setting of 355 nm and the wavelength emission setting of 460 nm. The number of the compound corresponds to the number of the Example in the experimental section.

Sequence of Human PKK (P03952 391-638): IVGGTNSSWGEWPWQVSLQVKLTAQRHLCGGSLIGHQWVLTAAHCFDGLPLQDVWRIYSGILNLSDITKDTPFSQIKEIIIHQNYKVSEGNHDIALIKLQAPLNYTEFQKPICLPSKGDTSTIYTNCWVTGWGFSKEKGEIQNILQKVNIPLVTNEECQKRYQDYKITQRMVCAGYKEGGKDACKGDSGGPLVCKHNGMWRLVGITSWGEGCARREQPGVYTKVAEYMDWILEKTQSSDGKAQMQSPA
Sequence of Human PKK (P03952 20-390 partner): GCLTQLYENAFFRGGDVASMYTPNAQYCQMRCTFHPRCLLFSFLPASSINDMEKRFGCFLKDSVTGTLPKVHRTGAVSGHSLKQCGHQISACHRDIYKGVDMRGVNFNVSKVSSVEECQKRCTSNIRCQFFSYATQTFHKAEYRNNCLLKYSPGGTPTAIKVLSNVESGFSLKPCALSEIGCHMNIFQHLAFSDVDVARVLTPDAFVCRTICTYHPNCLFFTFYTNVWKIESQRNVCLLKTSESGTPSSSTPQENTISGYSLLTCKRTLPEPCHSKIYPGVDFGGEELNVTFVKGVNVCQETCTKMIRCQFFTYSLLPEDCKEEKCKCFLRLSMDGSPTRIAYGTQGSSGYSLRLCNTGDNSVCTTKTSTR

Row | Structure (SMILES) | IC50 [nM]
1 | Cc1nc(N2CC3(CC3)C2)ccc1Cn1cc(C(=O)NCc2c(-n3cnnn3)ccc(Cl)c2F)c(C)n1 [Example 28] | 14
2 | Cc1nc(N2CC3CC3C2)ncc1Cn1cc(C(=O)NCc2cc(Cl)ccc2-n2cnnn2)c2cncnc21 (centres unmarked) [Example 27] | 3
3 | COCc1nn(Cc2ccc(N3CC4C(C3)C4(F)F)nc2C)cc1C(=O)NCc1cc(Cl)ccc1-n1cnnn1 (centres unmarked) [Example 12] | 0.9
4 | Cc1nc(N2CC3CC3C2)ccc1Cn1cc(C(=O)NCc2c(-n3cnnn3)ccc(Cl)c2F)c2cncnc21 (centres unmarked) [Example 16] | 0.6
5 | COC[C@H]1[C@H]2CN(c3ccc(Cn4cc(C(=O)NCc5cc(Cl)ccc5-n5cnnn5)cn4)c(C)n3)C[C@@H]12 [Example 55] | 3
6 | Cc1nc(N2CC3C(C2)C3(F)F)ncc1Cn1cc(C(=O)NCc2c(-n3cnnn3)ccc(Cl)c2F)c2cncnc21 (centres unmarked) [Example 23] | 1
7 | Cc1nc(N2CC3(CC3)C2)ncc1Cn1cc(C(=O)NCc2c(-n3cnnn3)ccc(Cl)c2F)cn1 [Example 40] | 0.5
8 | Cc1nc(N2CC3C(C2)C3(F)F)ncc1Cn1cc(C(=O)NCc2cc(Cl)ccc2-n2cnnn2)c(C)n1 (centres unmarked) [Example 34] | 1
9 | Cc1nc(N2CC3C(C2)C3(F)F)ccc1Cn1cc(C(=O)NCc2cc(Cl)ccc2-n2cnnn2)c(C)n1 (centres unmarked) [Example 18] | 1
10 | Cc1nc(N2CC3C(C2)C3(F)F)ccc1Cn1cc(C(=O)NCc2cc(Cl)ccc2-n2cnnn2)c2cncnc21 (centres unmarked) [Example 8] | 1
11 | COCc1nn(Cc2cnc(N3CC4CC4C3)nc2C)cc1C(=O)NCc1c(-n2cnnn2)ccc(Cl)c1F (centres unmarked) [Example 35] | 1
12 | Cc1nc(N2CC3C(C2)C3(F)F)ncc1Cn1cc(C(=O)NCc2cc(Cl)ccc2-n2cnnn2)c2cncnc21 (centres unmarked) [Example 24] | 2
13 | COCc1nn(Cc2cnc(N3CC4C(C3)C4(F)F)nc2C)cc1C(=O)NCc1c(-n2cnnn2)ccc(Cl)c1F (centres unmarked) [Example 32] | 1
14 | COCc1nn(Cc2ccc(N3CC4CC4C3)nc2C)cc1C(=O)NCc1c(-n2cnnn2)ccc(Cl)c1F (centres unmarked) [Example 14] | 0.6
15 | COC1C2CC1CN(c1ccc(Cn3cc(C(=O)NCc4cc(Cl)ccc4-n4cnnn4)cn3)c(C)n1)C2 (centres unmarked) [Example 84, N-{[5-chloro-2-(1H-1,2,3,4-tetrazol-1-yl)phenyl]methyl}-1-[(6-{6-methoxy-3-azabicyclo[3.1.1]heptan-3-yl}-2-methylpyridin-3-yl)methyl]-1H-pyrazole-4-carboxamide] | 4
16 | Cc1nc(N2CC3CCC(C2)N3)ccc1Cn1cc(C(=O)NCc2cc(Cl)ccc2-n2cnnn2)cn1 [Example 90, N-{[5-chloro-2-(1H-1,2,3,4-tetrazol-1-yl)phenyl]methyl}-1-[(6-{3,8-diazabicyclo[3.2.1]octan-3-yl}-2-methylpyridin-3-yl)methyl]-1H-pyrazole-4-carboxamide] | 119
17 | Cc1nc(N2CC3CC3C2)ccc1Cn1cc(C(=O)NCc2c(-n3cnnn3)ccc(Cl)c2F)c(C(F)F)n1 (centres unmarked) [Example 10] | 0.5
18 | Cc1nc(N2CC3CC2C3)ccc1Cn1cc(C(=O)NCc2cc(Cl)ccc2-n2cnnn2)cn1 [Example 67, 1-[(6-{2-azabicyclo[2.1.1]hexan-2-yl}-2-methylpyridin-3-yl)methyl]-N-{[5-chloro-2-(1H-1,2,3,4-tetrazol-1-yl)phenyl]methyl}-1H-pyrazole-4-carboxamide] | 10
19 | Cc1nc(N2CCC3(C2)CC3(F)F)ccc1Cn1cc(C(=O)NCc2cc(Cl)ccc2-n2cnnn2)cn1 (centres unmarked) [Example 66, N-{[5-chloro-2-(1H-1,2,3,4-tetrazol-1-yl)phenyl]methyl}-1-[(6-{1,1-difluoro-5-azaspiro[2.4]heptan-5-yl}-2-methylpyridin-3-yl)methyl]-1H-pyrazole-4-carboxamide] | 9
20 | Cc1nc(N2CC3CC3C2)ccc1Cn1cc(C(=O)NCc2c(-n3cnnn3)ccc(Cl)c2F)c(C)n1 (centres unmarked) [Example 20] | 0.4

The next lines start with the values.

Row | IC50 [nM] | Structure (SMILES)
21 | 22 | Cc1nc(N2CC3(CCOC3)C2)ccc1Cn1cc(C(=O)NCc2cc(Cl)ccc2-n2cnnn2)cn1 [Example 81, N-{[5-chloro-2-(1H-1,2,3,4-tetrazol-1-yl)phenyl]methyl}-1-[(2-methyl-6-{6-oxa-2-azaspiro[3.4]octan-2-yl}pyridin-3-yl)methyl]-1H-pyrazole-4-carboxamide]
22 | 1060 | Cc1nc(N2CC3(C2)CN(C(C)C)C3)ccc1Cn1cc(C(=O)NCc2cc(Cl)ccc2-n2cnnn2)cn1 [Example 79, N-{[5-chloro-2-(1H-1,2,3,4-tetrazol-1-yl)phenyl]methyl}-1-({2-methyl-6-[6-(propan-2-yl)-2,6-diazaspiro[3.3]heptan-2-yl]pyridin-3-yl}methyl)-1H-pyrazole-4-carboxamide]
23 | 127 | Cc1nc(N2C[C@@H]3C[C@]3(N)C2)ccc1Cn1cc(C(=O)NCc2cc(Cl)ccc2-n2cnnn2)cn1 [Example 88, 1-({6-[(1R,5S)-1-amino-3-azabicyclo[3.1.0]hexan-3-yl]-2-methylpyridin-3-yl}methyl)-N-{[5-chloro-2-(1H-1,2,3,4-tetrazol-1-yl)phenyl]methyl}-1H-pyrazole-4-carboxamide]
24 | 74 | Cc1nc(N2CCCC3(CC3)C2)ccc1Cn1cc(C(=O)NCc2cc(Cl)ccc2-n2cnnn2)cn1 [Example 72, 1-[(6-{5-azaspiro[2.5]octan-5-yl}-2-methylpyridin-3-yl)methyl]-N-{[5-chloro-2-(1H-1,2,3,4-tetrazol-1-yl)phenyl]methyl}-1H-pyrazole-4-carboxamide]
25 | 3 | Cc1nc(N2CCC3CC3C2)ccc1Cn1cc(C(=O)NCc2cc(Cl)ccc2-n2cnnn2)cn1 (centres unmarked) [Example 85, 1-[(6-{3-azabicyclo[4.1.0]heptan-3-yl}-2-methylpyridin-3-yl)methyl]-N-{[5-chloro-2-(1H-1,2,3,4-tetrazol-1-yl)phenyl]methyl}-1H-pyrazole-4-carboxamide]
26 | 5 | Cc1nc(N2CC3(CCCO3)C2)ccc1Cn1cc(C(=O)NCc2cc(Cl)ccc2-n2cnnn2)cn1 [Example 69, N-{[5-chloro-2-(1H-1,2,3,4-tetrazol-1-yl)phenyl]methyl}-1-[(2-methyl-6-{5-oxa-2-azaspiro[3.4]octan-2-yl}pyridin-3-yl)methyl]-1H-pyrazole-4-carboxamide]
27 | 4 | Cc1nc(N2CC3(CC3)C2)ccc1Cn1cc(C(=O)NCc2c(F)cccc2-n2cnnn2)cn1 [Example 94, 1-[(6-{5-azaspiro[2.3]hexan-5-yl}-2-methylpyridin-3-yl)methyl]-N-{[2-fluoro-6-(1H-1,2,3,4-tetrazol-1-yl)phenyl]methyl}-1H-pyrazole-4-carboxamide]
28 | 19 | Cc1nc(N2CC3(CCOCC3)C2)ccc1Cn1cc(C(=O)NCc2cc(Cl)ccc2-n2cnnn2)cn1 [Example 78, N-{[5-chloro-2-(1H-1,2,3,4-tetrazol-1-yl)phenyl]methyl}-1-[(2-methyl-6-{7-oxa-2-azaspiro[3.5]nonan-2-yl}pyridin-3-yl)methyl]-1H-pyrazole-4-carboxamide]
29 | 1090 | Cc1nc(N2CC3(CN(C)C3)C2)ccc1Cn1cc(C(=O)NCc2cc(Cl)ccc2-n2cnnn2)cn1 [Example 83, N-{[5-chloro-2-(1H-1,2,3,4-tetrazol-1-yl)phenyl]methyl}-1-[(2-methyl-6-{6-methyl-2,6-diazaspiro[3.3]heptan-2-yl}pyridin-3-yl)methyl]-1H-pyrazole-4-carboxamide]
